{"source": "paper PMC10803328", "about": "(Scientific Reports, 2024)", "key": {"[1]": {"test": "In vitro stability in rat brain homogenate, whole blood and plasma", "format": "in vitro ADME", "procedure": "(§1) In vitro stability was calculated by dividing the relative composition of the blood or brain homogenate determined with radio-HPLC by the initial radiochemical purity of the radioligand. […] The mixture was incubated at room temperature for 10 min and then processed exactly as described previously. The ultrafiltration components that contained high radioactivity were allowed time for radioactivity decay to within the optimal range of the γ-counter before they were counted again.\nFive milliliters of anticoagulated blood (STD-A) and brain (1.8 g) were harvested from a wild-type rat (~ 450 g) and used in the in vitro assays. The brains were immediately weighed and homogenized with twice their weights (3.6 mL) of ice cold 0.9% NaCl solution. Plasmas were separated from whole blood via centrifugation. […] Following incubation, aliquots (450 µL) were removed for radio-analysis and processed as detailed above for radio-HPLC analysis.\nAnticoagulated blood (STD-A; 5 mL) and brain (1.8 g) were harvested from a wild-type rat (~ 450 g) and used for the in vitro assays. The brains were immediately weighed and homogenized with twice their weights (3.6 mL) of ice-cold 0.9% saline. Plasma was separated from whole blood via centrifugation. […] Aliquots (450 µL) were then removed for radio analysis and processed as detailed above for radio-HPLC analysis."}, "[2]": {"test": "Plasma free fraction by ultrafiltration, rat plasma", "format": "in vitro ADME", "details": "fresh rat plasma, read-out: rat plasma free fraction (fP)", "procedure": "as §1"}, "[3]": {"test": "Plasma free fraction by ultrafiltration, pooled human standard plasma", "format": "in vitro ADME", "procedure": "as §1"}, "[4]": {"test": "Lipophilicity measurement (logD7.4) by partition", "format": "physicochemical", "details": "n = 6", "procedure": "Aliquots were distributed to 16 borosilicate disposable culture tubes (13 × 100 mm). The tubes were divided into two groups of […]. […] Extraction was performed by vortexing the tubes with their content for 1 min. The tubes were then centrifuged for 1 min. The organic and the aqueous phases were separated, and each phase was then sampled (50 µL) and counted separately in a well-type γ-counter (model 1480 Wizard; Perkin-Elmer) with an electronic window set between 360 and 1800 keV. The remaining two tubes, containing the radioactivity in buffer, served as stability measures for the radioligand. […] The aqueous phases were injected onto the HPLC. The resulting radiochromatograms provided correction factors for the γ-counter counts, of the aqueous samples, to determine parent radioligand radioactivity only (corrected radioactivity)[32]. LogD7.4octanol and logD7.4cyclohexane were each calculated as log((cpm in organic phase)/(corrected cpm in aqueous phase))."}, "[5]": {"test": "Ex vivo measurements of radioactivity in rat brain and blood 100 min after i.v. injection", "procedure": "Other experimental parameters that governed this study are listed in Supporting Information, Table S1. […] The rats were sacrificed via thoracotomy 100 min after radioligand injection. Anticoagulated blood was drawn from the myocardium followed by decapitation and harvesting of the brain. Each brain was removed, weighed, and immediately subjected to radio analysis after counting its concomitant radioactivity. Whole blood samples were removed and centrifuged to separate the plasma. Whole blood (300 µL each) and plasma samples (300 µL each) were also quantified for radioactivity in an automatic γ-counter (model 2480 Wizard 2; Perkin-Elmer) with an electronic window set at 360–1800 keV (counting efficiency, 51.84%). Briefly, plasma samples (~ 450 µL) were deproteinated with acetonitrile treatment (720 µL). The radioactivity of various plasma and brain tissues were counted in the γ-counter. Brain tissues were then homogenized in acetonitrile (1.0 mL) using a handheld tissue Tearor (model 985-370; BioSpec Products Inc; Bartlesville, OK), followed by a second homogenization in water (1.0 mL). The homogenates were counted in the γ-counter to calculate the percentage recovery of radioactivity in the acetonitrile extracts. Corrections of all tissue assays for physical decay were made with a half-life of 20.385 min. The homogenates were then centrifuged at 10,000g for 2 min. The clear supernatants were injected onto the HPLC column through nylon filters. For each sample, radioactivity in the resulting precipitate was used to calculate the percent recovery of activity into the acetonitrile supernatant."}, "[6]": {"tested_on": "efflux transporters (P-gp and BCRP)", "test": "PET imaging in wild-type and dual efflux transporter knockout mice", "format": "in vivo, mouse", "procedure": "(§2) All PET imaging studies were performed with a Mediso LFER 150 preclinical scanner (nanoScan PET/CT). Brain and brain region radioactivity uptake was expressed by standardized uptake value (SUV) which normalizes for injected radioactivity and monkey body weight, as follows: SUV = [(% injected dose per g tissue) × body weight in g]/100.\nRadioligand was injected intravenously via a tail vein catheter followed by PET imaging for 90 min. Whole brain uptake in SUV was compared between wild type and knockout mice."}, "[7]": {"test": "PET imaging and arterial plasma radiometabolite analysis in non-transduced healthy monkey", "format": "in vivo, rhesus monkey", "procedure": "as §2\nTwo male rhesus monkeys (macaca mulatta; 10.0 and 8.6 kg) underwent PET scanning. Each monkey was initially immobilized with ketamine (10 mg/kg, i.m.) and then maintained under anesthesia with 1.5% isoflurane. For each monkey, a baseline scan was performed for 120 min. […] Electrocardiogram, body temperature, heart, and respiration rates were monitored throughout the scans.\nTotal radioactivity concentrations in sampled arterial whole blood and plasma were measured in a γ-counter throughout the 90-min scanning period.\nPET images were reconstructed using Fourier rebinding plus two-dimensional filtered back-projection with attenuation and scatter correction. Images were co-registered to a standardized monkey MRI template using the FMRIB Software Library (FSL; Oxford, UK). Thirty-four predefined brain regions of interest from the template were applied to the co-registered PET image to obtain regional, decay-corrected, time-activity curves."}, "PSAM^4-GlyR": {"biological_target": "PSAM^4-GlyR (Homo sapiens, UniProt P23415+P36544, L131G/Q139L/Y217F)", "sequence (P36544+P23415 fused P36544:L131G/P36544:Q139L/P36544:Y217F)": "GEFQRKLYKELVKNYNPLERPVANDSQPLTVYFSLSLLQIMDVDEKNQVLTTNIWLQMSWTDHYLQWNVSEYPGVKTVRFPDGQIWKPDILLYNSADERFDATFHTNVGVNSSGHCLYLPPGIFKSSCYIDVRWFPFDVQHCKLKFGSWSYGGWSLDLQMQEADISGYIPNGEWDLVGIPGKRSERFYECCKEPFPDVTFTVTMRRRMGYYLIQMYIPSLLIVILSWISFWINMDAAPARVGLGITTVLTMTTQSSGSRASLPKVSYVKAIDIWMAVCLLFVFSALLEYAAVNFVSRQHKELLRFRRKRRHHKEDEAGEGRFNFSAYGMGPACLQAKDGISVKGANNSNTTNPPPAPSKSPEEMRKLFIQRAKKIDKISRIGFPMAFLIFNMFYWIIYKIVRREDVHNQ", "parameters": "expressed in transfected cells; method as in PMID 30872534, PMID 24556591, PMID 36279419", "details": "read-out: PSAM^4-GlyR (Ki); in vitro binding assay, literature; cited from earlier work"}, "[8]": {"details": "in vitro incubation at 37 °C, rat"}, "[9]": {"details": "Rat-3, blocked with uPSEM792, 100 min"}, "[10]": {"details": "Rat-3, blocked with uPSEM792 i.v. 15 min before radioligand, 100 min"}, "[11]": {"details": "baseline rats (Rat-1, Rat-2), 100 min"}, "[12]": {"details": "baseline rats (Rat-1, Rat-2), 100 min after injection"}, "[13]": {"details": "rat, ex vivo, 100 min after i.v. injection, HPLC"}, "[14]": {"details": "non-transduced healthy monkey, i.v., PET"}}, "note": "pKi: −log10 of the molar value. “And” between values parts separate entries of the source, which are not always exact repeats. Equal values may be shown once.", "data": [{"smiles": "[11CH3]n1c(=O)cnc2cc3c(cc21)C1CNCC3C1", "note": "(stereo not drawn) [[^11C]uPSEM792]", "values": [{"measurement": "in vitro stability in homogenized non-perfused rat brain", "setting": "[1]; 30 min at 37 °C", "result": 94, "unit": "%"}, {"measurement": "in vitro stability in rat plasma", "setting": "[1]; 30 min at 37 °C", "result": 85.4, "unit": "%"}, {"measurement": "in vitro stability in rat whole blood", "setting": "[1]; 30 min at 37 °C", "result": 83.8, "unit": "%"}, {"measurement": "HPLC Composition (%), in vitro fresh rat brain", "setting": "[1]; in vitro incubation at 37 °C", "result": 92, "unit": "%"}, {"measurement": "HPLC Composition (%), in vitro plasma", "setting": "[1]; [8]", "result": 83, "unit": "%"}, {"measurement": "HPLC Composition (%), in vitro whole blood", "setting": "[1]; [8]", "result": 82, "unit": "%"}, {"measurement": "fraction unbound at 10 min, 2.6 MBq/mL", "setting": "[2]", "result": 0.898}, {"measurement": "fraction unbound at 10 min, 2.6 MBq/mL", "setting": "[3]", "result": 0.876}, {"measurement": "ΔLogD7.4 (logD7.4(octanol) − logD7.4(cyclohexane))", "setting": "[4]", "result": "2.45 ± 0.03"}, {"measurement": "Ex vivo brain", "setting": "[5]; [9]", "result": 0.72, "unit": "nM"}, {"measurement": "Ex vivo brain (SUV)", "setting": "[5]; [9]", "result": 0.401, "unit": "SUV"}, {"measurement": "Ex vivo plasma parent (SUV)", "setting": "[5]; [9]", "result": 0.064, "unit": "SUV"}, {"measurement": "Ex vivo whole blood (SUV)", "setting": "[5]; [9]", "result": 0.163, "unit": "SUV"}, {"measurement": "HPLC Composition (%), ex vivo brain", "setting": "[5]; [10]", "result": 68.3, "unit": "%"}, {"measurement": "HPLC Composition (%), ex vivo plasma", "setting": "[5]; [10]", "result": 37.1, "unit": "%"}, {"measurement": "Ex vivo brain", "setting": "[5]; [11]", "result": "0.68 nM and 0.83 nM"}, {"measurement": "Ex vivo brain (SUV)", "setting": "[5]; [11]", "result": "0.407 SUV and 0.468 SUV"}, {"measurement": "Ex vivo plasma parent (SUV)", "setting": "[5]; [11]", "result": "0.063 SUV and 0.064 SUV"}, {"measurement": "Ex vivo whole blood (SUV)", "setting": "[5]; [11]", "result": "0.141 SUV and 0.163 SUV"}, {"measurement": "HPLC Composition (%), ex vivo brain", "setting": "[5]; [12]", "result": "78.3% and 75.6%"}, {"measurement": "HPLC Composition (%), ex vivo plasma", "setting": "[5]; [12]", "result": "43.0% and 37.9%"}, {"measurement": "total radioactivity concentration in rat brain", "setting": "[5]; ex vivo, 100 min after i.v. injection", "result": "~ 0.4 SUV"}, {"measurement": "Kp at 100 min", "setting": "[5]; male, brain and plasma, intravenous, rat, 100 min, read-out: fold lower concentration of unchanged radioligand in plasma than in brain", "result": 6.7}, {"measurement": "concentration of unchanged radioligand in plasma", "setting": "[5]; rat, 100 min, n = 3", "result": "0.064 ± 0.001", "unit": "SUV"}, {"measurement": "unchanged radioligand as share of radioactivity in brain", "setting": "[5]; [13]", "result": 75.6, "unit": "%"}, {"measurement": "unchanged radioligand fraction of all radioactivity in plasma", "setting": "[5]; [13]", "result": 37.9, "unit": "%"}, {"measurement": "substrate for efflux transporters in vivo", "setting": "[6]; dual P-gp and BCRP knockout vs wild-type mice", "result": "substrate for efflux transporters in vivo"}, {"measurement": "early peak brain radioactivity uptake", "setting": "[6]; dual efflux transporter (P-gp and BCRP) knockout mice, i.v.", "result": "~ 0.7 SUV"}, {"measurement": "time at which radiometabolites represented half of the radioactivity in plasma", "setting": "[7]; male, rhesus monkey, in vivo", "result": 78, "unit": "min"}, {"measurement": "unchanged radioligand peak in plasma radiochromatogram", "setting": "[7]; male, rhesus monkey, in vivo, 120 min", "result": 29, "unit": "%"}, {"measurement": "peak of whole brain time-activity curve", "setting": "[7]; [14]", "result": "0.8 SUV and ~ 0.8 SUV"}, {"measurement": "plateau of whole brain time-activity curve", "setting": "[7]; [14]", "result": "about 0.65 SUV"}, {"measurement": "pKi", "setting": "PSAM^4-GlyR", "result": 9.15}]}]}
